# US10975399B2, “Use of nitric oxide or nitric oxide donor for inducing the production of triacylglycerols in microalgae” (Commissariat A L'energie Atomique Et Aux Energies …, priority 2016, dated 2021)
# Columns and labels:
# [1] = test system: Phaeodactylum tricornutum; experiment: TAG accumulation by Nile Red staining; format: cell-based; conditions: 1 mM, 2-day incubation, 500 μL volume, 10×ESAW medium
# Experimental: FIGS. 1 to 4: Effect of increasing concentrations of SNAP on the production of TAG in Phaedocatylum tricornutum. The medium used was 10×ESAW; incubation was performed in 500 μl, inoculated at 1E+06 cells/ml, with immediate addition of chemicals. Measurements were performed after 2 days of incubation. Data of FIGS. 1 and 2 and 3 are the results of 3 biological replicates, FIG. 4 was a time course without replicates. NAP was used as a non-active analogue of SNAP. FIG. 2: Effect of increasing concentrations of SNAP on TAG level per cell. TAG level per cell is given in relative fluorescence units/10^6 cells. FIG. 3: Effect of increasing concentrations of SNAP on TAG productivity. TAG productivity is given in relative fluorescence unit (Rfu) corresponding to the fluorescence of Nile Red per mL and per day. […] Growth was evaluated by cell counting using a Malassez counting chamber, or by the absorption at 750 nm using a plate reader. […] Accumulation of TAG droplets was monitored by Nile Red (Sigma Aldrich) fluorescent staining (Excitation wavelength at 485 nm; emission at 525 nm) following the principles previously described (Abida et al., 2015). In brief, cells were diluted and adjusted to a cell density that was linearly correlated with Nile Red fluorescence. […] Alternatively, Nile red fluorescence values were normalized to the cell concentration.
# [2] = test system: Phaeodactylum tricornutum; experiment: Growth of P. tricornutum incubated with the NO donor (cell counting); format: cell-based; conditions: 1 mM, 2-day incubation, 500 μL volume, 10×ESAW medium, FIG. 1
# Experimental: FIGS. 1 to 4: Effect of increasing concentrations of SNAP on the production of TAG in Phaedocatylum tricornutum. The medium used was 10×ESAW; incubation was performed in 500 μl, inoculated at 1E+06 cells/ml, with immediate addition of chemicals. Measurements were performed after 2 days of incubation. Data of FIGS. 1 and 2 and 3 are the results of 3 biological replicates, FIG. 4 was a time course without replicates. NAP was used as a non-active analogue of SNAP. FIG. 1: Effect of increasing concentrations of SNAP on growth. Growth is measured in cell/mL. Phaeodactylum tricornutum (Ptl) Bohlin Strain 8.6 CCMP2561 (Culture Collection of Marine Phytoplankton, now known as NCMA: National Center for Marine Algae and Microbiota) was used in all experiments. Ptl was grown at 20° C. in 250 mL flask in artificial seawater (ESAW) medium (composition of the medium see table 1) using ten times enriched nitrogen and phosphate sources (5.49·10^−3 M NaNO3 and 2.24·10^−4 NaH3PO4) called “10×ESAW”, or nitrogen-depleted medium. Cells were grown on a 12:12 light (30 μE m^−2sec^−1)/dark cycle. Cells were sub-cultured twice a week by inoculating 1·10^6 cells/ml with fresh media. Growth was evaluated by cell counting using a Malassez counting chamber, or by the absorption at 750 nm using a plate reader. S-Nitroso-N-acetylpenicillamine (SNAP) is a compound that spontaneously releases NO, when dissolved.
structure (smiles),measurement,setting,value
"CC(=O)N[C@H](C(=O)O)C(C)(C)SN=O (racemic) [SNAP, S-Nitroso-N-acetylpenicillamine]",increase of productivity (level of TAG per volume of culture and per day),"[1]; Nile Red Rfu per mL and per day, FIG. 3",> 2 fold
same,increase of TAG per cell,"[1]; Nile Red fluorescence per 10^6 cells, FIG. 2",2.2 fold
same,cell growth,[2],reduction of cell growth
